# Experimental data taken from ChEMBL document CHEMBL1151680, “Cytotoxic amides from the octocoral Telesto riisei” (1996).
# System: P388
# Test: Cytotoxicity against mouse P388 cells
# Type: functional
# Conditions: read-out: ED50 (the source's name)
row,Structure (SMILES),EC50 [µg/mL]
1,CC(=O)OCC(C)CCC[C@@H](C)[C@H]1CC[C@H]2[C@@H]3C[C@@H](O)[C@@]4(O)C[C@@H](O)CC[C@]4(C)[C@H]3CC[C@]12C (some centres not stated),2.4
2,CC(CO)CCC[C@@H](C)[C@H]1CC[C@H]2[C@@H]3C[C@@H](O)[C@@]4(O)C[C@@H](O)CC[C@]4(C)[C@H]3CC[C@]12C (some centres not stated),1.3
